From patent US12098116B2, “Crystalline prostacyclin (IP) receptor agonist and uses thereof” (United Therapeutics Corporation, priority 2022, dated 2024)
Values after ≈ are worked out from the molar mass of the structure shown. Where two headings read alike, the source gives them in different places.

Legend:
[1] = Dynamic Vapour Sorption (DVS); type: physicochemical
Protocol: Approximately, 10 mg of sample was placed into a mesh vapor sorption balance pan and loaded into a DVS-1/DVS Intrinsic/DVS Advantage dynamic vapor sorption balance by Surface Measurement Systems. The sample was subjected to a ramping profile from 40-90% relative humidity (RH) at 10% increments, maintaining the sample at each step until a stable weight had been achieved (dm/dt 0.004%, minimum step length 30 min, maximum step length 500 min) at 25° C. After completion of the sorption cycle, the sample was dried using the same procedure to 0% RH and then a second sorption cycle back to 40% RH. Two cycles were performed. The weight change during the sorption/desorption cycles were plotted, allowing for the hygroscopic nature of the sample to be determined.

[2] = Solid form conversion on drying or heating, followed by XRPD; type: physicochemical
[3] = cited from earlier work
[4] = cited from earlier work; remark: listed apart in the source
[5] = test system: human pulmonary artery smooth muscle cell (PASMC); settings: head-to-head in vitro; cited from earlier work
[6] = healthy volunteer population, cited from earlier work
[7] = Solvent solubility study of ralinepag; type: physicochemical; settings: thermodynamic from solid
Protocol: To prepare amorphous material for solubility testing, 330 mg of ralinepag was dissolved in 33 mL tert-butanol (with gentle heating applied via a heatgun) before being split evenly into 33 vials (˜10 mg of ralinepag per sample). […] One vial of solid was analyzed by XRPD to confirm that ralinepag had been rendered amorphous. However, as in Example 2g, a poorly crystalline Pattern 2 was observed. 32 solvents and solvent systems were added to 32×10 mg of lyophilized ralinepag in 50 μL aliquots for the first 300 μL or until complete dissolution was noted. If complete dissolution was not observed, 100 μL aliquots were added thereafter up to 1 mL total solvent. Between each addition, the mixture was manually shaken for a few seconds and if complete dissolution was not apparent, the mixture was heated to about 40° C. and checked again. Where complete dissolution occurred, the solvent was allowed to evaporate at ambient temperature. Where complete dissolution was not observed, the solids were isolated via centrifuge filtration. Recovered solids were analyzed by XRPD.

IP receptor = IP receptor (Homo sapiens, UniProt P43119); settings: head-to-head in vitro; cited from earlier work
pulmonary artery = settings: head-to-head in vitro; cited from earlier work

Sequence of IP receptor (P43119 whole entry): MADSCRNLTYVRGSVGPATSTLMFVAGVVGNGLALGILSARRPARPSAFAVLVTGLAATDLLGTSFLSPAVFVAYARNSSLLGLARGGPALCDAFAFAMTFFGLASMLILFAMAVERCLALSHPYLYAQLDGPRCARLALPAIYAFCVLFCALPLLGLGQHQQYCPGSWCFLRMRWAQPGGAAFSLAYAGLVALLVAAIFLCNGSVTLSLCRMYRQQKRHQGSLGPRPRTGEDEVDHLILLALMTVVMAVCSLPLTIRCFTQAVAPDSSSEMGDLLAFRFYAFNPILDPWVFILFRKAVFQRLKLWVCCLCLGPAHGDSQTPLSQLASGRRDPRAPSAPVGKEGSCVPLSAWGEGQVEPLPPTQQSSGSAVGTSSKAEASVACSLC

## O=C(O)COC[C@H]1CC[C@H](COC(=O)N(c2ccccc2)c2ccc(Cl)cc2)CC1 [Form 1]
[1]; DVS, 25° C.
  Hygroscopic nature: non-hygroscopic
[1]; after DVS between 0% and 90% RH
  XRPD of the solid after DVS analysis: unchanged
[1]; between 0% and 90% RH, 25° C.
  Reversible water uptake: 0.1 % (w/w)

## O=C(O)COC[C@H]1CC[C@H](COC(=O)N(c2ccccc2)c2ccc(Cl)cc2)CC1 [Pattern 2]
[2]; dried under vacuum at 40° C. for approximately 21 h
  Solid form after drying (XRPD): retained
[2]; on heating
  Solid form conversion on heating: converts to Form 1

## O=C(O)COC[C@H]1CC[C@H](COC(=O)N(c2ccccc2)c2ccc(Cl)cc2)CC1 [Pattern 4]
[2]; made from DMA/water
  Solid form conversion upon drying: converts to a predominantly amorphous form with some Form 1 peaks present
[2]; made from NMP/water, upon drying (even with air drying)
  Solid form conversion upon drying: converts to Form 1

## CC(C)N(CCCCOCC(=O)NS(C)(=O)=O)c1cnc(-c2ccccc2)c(-c2ccccc2)n1 [Selexipag]
[3]; after 17 weeks of treatment
  Effect on PVR: reduce PVR
[3]; in vivo
  Reduction in a composite morbidity and mortality endpoint: 40%

## CCCCC[C@H](O)/C=C/[C@@H]1[C@H]2C/C(=C/CCCC(=O)O)O[C@H]2C[C@H]1O [epoprostenol]
[4]
  Stability at room temperature: unstable at room temperature

## O=C(O)COC[C@H]1CC[C@H](COC(=O)N(c2ccccc2)c2ccc(Cl)cc2)CC1 [ralinepag, 2-([(1r,4r)-4-(((4-chlorophenyl)(phenyl)carbamoyloxy)methyl)-cyclohexyl]methoxy)acetic acid]
[5]
  Inhibition of human PASMC proliferation compared with selexipag: better inhibition
[6]; compared with selexipag
  Variability in plasma concentrations between doses (peak:trough ratio): less variability
[6]; single- and multiple-dose studies
  t1/2 compared with selexipag (and its active metabolite MRE-269): longer t1/2 than selexipag
[7]; aqueous with cosolvent or surfactant or cyclodextrin, solvent ethanol/water (48:52% v/v), read-out: Estimated Solubility
  solubility: < 10 mg/mL
[7]; organic solvent or mixture, in 29 of the 32 solvent systems, poorly crystalline ralinepag, read-out: Solubility, summary of the screen
  solubility: ≥ 10 mg/mL
[7]; organic solvent or mixture, solvent 1,1-dimethoxymethane, heated to 40° C., lyophilized poorly crystalline material, read-out: Estimated Solubility
  solubility: 50 mg/mL (≈ 116 mM)
[7]; organic solvent or mixture, solvent 1,2-dichloroethene, heated to 40° C., read-out: Estimated Solubility
  solubility: 200 mg/mL (≈ 463 mM)
[7]; organic solvent or mixture, solvent 1,4-dioxane, heated to 40° C., read-out: Estimated Solubility
  solubility: 200 mg/mL (≈ 463 mM)
[7]; organic solvent or mixture, solvent 1-butanol, heated to 40° C., read-out: Estimated Solubility
  solubility: 50 mg/mL (≈ 116 mM)
[7]; organic solvent or mixture, solvent 1-propanol, heated to 40° C., read-out: Estimated Solubility
  solubility: 50 mg/mL (≈ 116 mM)
[7]; organic solvent or mixture, solvent 2-ethoxyethanol, heated to 40° C., read-out: Estimated Solubility
  solubility: 200 mg/mL (≈ 463 mM)
[7]; organic solvent or mixture, solvent 2-methyl-1-propanol, heated to 40° C., read-out: Estimated Solubility
  solubility: 50 mg/mL (≈ 116 mM)
[7]; organic solvent or mixture, solvent 2-methyltetrahydrofuran, read-out: Estimated Solubility
  solubility: 200 mg/mL (≈ 463 mM)
[7]; organic solvent or mixture, solvent 2-propanol, heated to 40° C., read-out: Estimated Solubility
  solubility: 50 mg/mL (≈ 116 mM)
[7]; organic solvent or mixture, solvent N,N-dimethylacetamide, read-out: Estimated Solubility
  solubility: 200 mg/mL (≈ 463 mM)
[7]; organic solvent or mixture, solvent N,N-dimethylformamide, read-out: Estimated Solubility
  solubility: 200 mg/mL (≈ 463 mM)
[7]; organic solvent or mixture, solvent N-methyl-2-pyrrolidone, read-out: Estimated Solubility
  solubility: 200 mg/mL (≈ 463 mM)
[7]; organic solvent or mixture, solvent acetone, read-out: Estimated Solubility
  solubility: 200 mg/mL (≈ 463 mM)
[7]; organic solvent or mixture, solvent acetonitrile, heated to 40° C., read-out: Estimated Solubility
  solubility: 40 mg/mL (≈ 92.6 mM)
[7]; organic solvent or mixture, solvent anisole, read-out: Estimated Solubility
  solubility: 200 mg/mL (≈ 463 mM)
[7]; organic solvent or mixture, solvent benzyl alcohol, read-out: Estimated Solubility
  solubility: 200 mg/mL (≈ 463 mM)
[7]; organic solvent or mixture, solvent butyl acetate, heated to 40° C., read-out: Estimated Solubility
  solubility: 50 mg/mL (≈ 116 mM)
[7]; organic solvent or mixture, solvent dimethylsulfoxide, heated to 40° C., read-out: Estimated Solubility
  solubility: 200 mg/mL (≈ 463 mM)
[7]; organic solvent or mixture, solvent ethanol/water (93:7% v/v), heated to 40° C., read-out: Estimated Solubility
  solubility: 100 mg/mL (≈ 232 mM)
[7]; organic solvent or mixture, solvent ethanol/water (98.5:1.5% v/v), read-out: Estimated Solubility
  solubility: 100 mg/mL (≈ 232 mM)
[7]; organic solvent or mixture, solvent ethanol, heated to 40° C., read-out: Estimated Solubility
  solubility: 100 mg/mL (≈ 232 mM)
[7]; organic solvent or mixture, solvent ethyl acetate, heated to 40° C., read-out: Estimated Solubility
  solubility: 100 mg/mL (≈ 232 mM)
[7]; organic solvent or mixture, solvent heptane, read-out: Estimated Solubility
  solubility: < 10 mg/mL
[7]; organic solvent or mixture, solvent isopropyl acetate, heated to 40° C., read-out: Estimated Solubility
  solubility: 66.7 mg/mL (≈ 154 mM)
[7]; organic solvent or mixture, solvent methanol, heated to 40° C., read-out: Estimated Solubility
  solubility: 200 mg/mL (≈ 463 mM)
[7]; organic solvent or mixture, solvent methylethyl ketone, heated to 40° C., read-out: Estimated Solubility
  solubility: 200 mg/mL (≈ 463 mM)
[7]; organic solvent or mixture, solvent methylisobutyl ketone, heated to 40° C., read-out: Estimated Solubility
  solubility: 100 mg/mL (≈ 232 mM)
[7]; organic solvent or mixture, solvent tert-butylmethyl ether, heated to 40° C., read-out: Estimated Solubility
  solubility: 25 mg/mL (≈ 57.9 mM)
[7]; organic solvent or mixture, solvent tetrahydrofuran, heated to 40° C., read-out: Estimated Solubility
  solubility: 200 mg/mL (≈ 463 mM)
[7]; organic solvent or mixture, solvent toluene, heated to 40° C., read-out: Estimated Solubility
  solubility: 14.3 mg/mL (≈ 33.1 mM)
[7]; solvent water, read-out: Estimated Solubility
  solubility: < 10 mg/mL
IP receptor
  Increase of cellular cAMP levels compared with selexipag: more potent and efficacious than selexipag
Pulmonary artery
  Pulmonary artery vasodilation compared with selexipag: improved
